# Measured values: patent US5726195A, “Aminoacyl adenylate mimics as novel antimicrobial and antiparasitic agents” (Cubist Pharmaceuticals, Inc., priority 1996, dated 1998)
# Key:
# [1] = system: M. catarrhalis ATCC 25240; assay: Whole cell antimicrobial screen, MIC; assay type: cell-based; conditions: Moraxella catarrhalis, ATCC25240
# How it was run: (§1)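 Compounds in DMSO were diluted into growth medium to final concentrations of 0.1 μg/mL-500 μg/mL, then added as 2-fold dilutions to 5×10^4 bacterial cells. After overnight incubation at 30° C.-37° C., optical density was measured, and the MIC was assigned as the lowest concentration preventing growth.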
# S. aureus ATCC 6538P = assay: Whole cell antimicrobial screen, MIC; assay type: cell-based; conditions: Staphylococcus aureus, ATCC6538P
# How it was run: as §1
# B. subtilis ATCC 6633 = assay: Whole cell antimicrobial screen, MIC; assay type: cell-based; conditions: Bacillus subtilis, ATCC6633
# How it was run: as §1
# C. albicans ATCC 10231 = assay: Whole cell antimicrobial screen, MIC; assay type: cell-based; conditions: Candida albicans, ATCC10231
# How it was run: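 Broth microdilution following NCCLS: two-fold dilutions (final 0.1–500 μg/mL, ≤1% DMSO) with 5×10^4 cells in 100 μL of appropriate medium, e.g. Mueller-Hinton broth. After overnight incubation at 30–37 °C, growth was read by optical density, and MIC is the lowest concentration inhibiting growth.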
# [2] = system: S. saprophyticus ATCC 35552; assay: Whole cell antimicrobial screen, MIC; assay type: cell-based; conditions: Staphylococcus saprophyticus, ATCC35552
# How it was run: as §1
# E. faecium ATCC 6569 = assay: Whole cell antimicrobial screen, MIC; assay type: cell-based; conditions: Enterococcus faecium, ATCC6569
# How it was run: as §1
# [3] = system: S. epidermidis ATCC 33501; assay: Whole cell antimicrobial screen, MIC; assay type: cell-based; conditions: Staphylococcus epidermidis, ATCC33501
# How it was run: as §1
# K. pneumonia ATCC 4352 = assay: Whole cell antimicrobial screen, MIC; assay type: cell-based; conditions: Klebsiella pneumoniae, ATCC4352
# How it was run: as §1
# S. pyogenes ATCC 8668 = assay: Whole cell antimicrobial screen, MIC; assay type: cell-based; conditions: Streptococcus pyogenes, ATCC8668
# How it was run: as §1
# S. pneumonia ATCC 49619 = assay: Whole cell antimicrobial screen, MIC; assay type: cell-based
# How it was run: as §1
# S. aureus ATCC 14154 = assay: Whole cell antimicrobial screen, MIC; assay type: cell-based; conditions: Staphylococcus aureus, ATCC14154
# How it was run: as §1
# H. influenza ATCC 49247 = assay: Whole cell antimicrobial screen, MIC; assay type: cell-based
# How it was run: as §1
# E. faecalis ATCC 33011 = assay: Whole cell antimicrobial screen, MIC; assay type: cell-based; conditions: Enterococcus faecalis, ATCC33011
# How it was run: as §1
# [4] = system: multidrug resistant Streptococcus pyogenes (#OTTO 209); assay: Mouse protection test against multidrug resistant Streptococcus pyogenes; assay type: in vivo, Streptococcus pyogenes; female CD-1 mice; conditions: for Protective % / Number of Alive: repeated at 4 hours, 7 days; for Number of Alive: of 5 mice
# Source text: The mouse protection test is an industry standard for measuring the efficacy of a test compound in vivo [for examples of this model see J. J. Clement, et al., Antimicrobial Agents and Chemotherapy, 38 (5), 1071-1078, (1994)]. As exemplified below, this test was used to show the in vivo efficacy of the compounds of the present invention against bacteria.
# The in vivo activity of compound X against multidrug resistant bacteria was established by infecting female CD-1 mice (Charles River Lab, Massachusettes) weighing 20-24 g intraperitoneally with multidrug resistant Streptococcus pyogenes inoculum. The inoculum was prepared from multidrug resistant Streptococcus pyogenes (resistant to erythromycin, tetracycline, and chloramphenicol, #OTTO 209 obtained from Dr. Pentti Huovinen, National Public Health Institute, Finland) which was cultured in brain heart infusion broth (Baltimore Biological Laboratories, Maryland) at 37° C. for 2 hr, and then 0.1 ml of the culture was diluted with the medium to 1.0 ml for reading its OD at 600 nm (0.12). The turbidity of a 0.5 McFarland standard is equivalent to OD600 0.1, or 10^8 cfu/ml. Then, 4×10^8 cfu of the bacteria (333 μl was added to 20 ml of phosphate buffered saline (Sigma P-0261 ) containing 10 % hog gastric mucin (Sigma M-2378). All animals were injected with 0.5 ml of the inoculum, equivalent to 10^7 cfu/mouse which is the dose causing ~100% death of the animals without treatment.
# Compound X (60 mg) was dissolved in 6.0 ml of 0.05M Tris.HCl (pH 8.8) to give a solution of 10 mg/ml. This solution was serially diluted two times with 0.05M Tris.HCl by 5-fold (1.0 ml to 5.0 ml) to give 2 and 0.4 mg/ml solutions. The known antibiotic vancomycin HCl (Sigma V-2002, in normal saline, 1 mg/ml, pH 6.0-7.0) was used as a positive control. All the solutions were filtered with 0.2 μm Nalgene syringe filter. Immediately after the bacterial inoculation, group 1 animals were subcutaneously (sc) injected with 0.05M Tris.HCl (no antibiotic) and groups 2 to 4 were given compound X sc at 4, 20 and 100 mg/kg, respectively. Group 5 animals received vancomycin sc at 10 mg/kg. These injections were repeated once at 4 hours after the inoculation for the respective groups. The injection volume at each time was 10 ml per kilogram of body weight. The 50% protective dose (PD50) is calculated on the basis of the number of mice surviving 7 days after inoculation.
structure (smiles),measurement,setting,value
"CC[C@H](C)[C@H](N)C(=O)NS(=O)(=O)OC[C@H]1O[C@@H](CCn2nnc(-c3ccc(Oc4ccccc4)cc3)n2)[C@H](O)[C@@H]1O [Compound X, [S-(R*,R*)]-3,6-anhydro-1,2-dideoxy-1-[5-(4-phenoxyphenyl)-2H-tetrazol-2-yl]-D-allo-heptitol 7-(2-amino-3-methyl-1-oxopentyl)sulfamate]",MIC,[1],25 µg/mL
same,MIC,S. aureus ATCC 6538P,10 µg/mL
same,MIC,B. subtilis ATCC 6633,10 µg/mL
same,MIC,C. albicans ATCC 10231,> 500 µg/mL
same,MIC,[2],5 µg/mL
same,MIC,E. faecium ATCC 6569,10 µg/mL
same,MIC,[3],2 µg/mL
same,MIC,K. pneumonia ATCC 4352,50 µg/mL
same,MIC,S. pyogenes ATCC 8668,0.5 µg/mL
same,MIC,S. pneumonia ATCC 49619,25 µg/mL
same,MIC,S. aureus ATCC 14154,25 µg/mL
same,MIC,H. influenza ATCC 49247,100 µg/mL
same,MIC,E. faecalis ATCC 33011,300 µg/mL
same,Protective %,[4]; 4 mg/kg sc,0%
same,Number of Alive,[4]; 4 mg/kg sc,0
same,Protective %,[4]; 20 mg/kg sc,80%
same,Number of Alive,[4]; 20 mg/kg sc,4
same,Protective %,[4]; 100 mg/kg sc,100%
same,Number of Alive,[4]; 100 mg/kg sc,5
same,ED50,"[4]; Streptococcus pyogenes, 168 h, sc, mice surviving 7 days after inoculation, multidrug resistant, read-out: PD50 (50% protective dose)",16.5 mg/kg
